Laboratory results from patent US20220211658A1, “METHODS FOR TREATING DISORDERS ASSOCIATED WITH SLEEP SPINDLE DEFICITS” (The Broad Institute, Inc., priority 2019, published 2022).

Legend:
[1] = system: TRN neurons in WT mice; test: Rebound burst firing in TRN neurons, acute brain slices from WT mice; type: cell-based; conditions: mean±s.e.m.
From the text: (§1) TRN neurons are known to display dual firing modes depending on their resting membrane potential: tonic and burst firing. While tonic firing refers to regular sodium spike trains at depolarized membrane potential, burst firing is characterized by repetitive “low-threshold” T type Ca^2+ transients (mediated by Cav3.3 channel) crowned by high-frequency sodium spikes when hyperpolarized. This burst firing mode may be critical for the generation and/or the maintenance of certain sleep rhythms in mice, including generation and maintenance of sleep spindle oscillations (Astori et al., 2011; Lee et al., 2014; Steriade et al., 1993; von Krosigk et al., 1993; Sherman et al., 2002).
Whether this characteristic TRN burst firing activity is affected by activation of the group II metabotropic glutamate receptors, including mGlu2 and mGlu3, was examined using the group II metabotropic glutamate receptor agonist, LY379268. As shown in FIG. 1A-1B, a significant increase in the repetitive rebound bursting after the addition of LY379268 compared to baseline levels in acute brain slices acquired from wild-type (WT) mice was observed. The rebound bursting in the baseline condition (control) was 1.87±0.291 (mean±s.e.m.), while after the bath application of LY379268 (1 μM) it was 2.87±0.435 (n=15 Wilcoxon signed rank test: p=0.002**). Such increase was not observed in WT slices treated with artificial cerebrospinal fluid (ACSF; n=14; baseline: 1.79±0.291; ACSF treated: 2.21±0.299; Wilcoxon signed rank test: p=0.1562). In addition, there was also a reduction in burst threshold (defined as the lowest membrane holding potential from which hyperpolarization induced rebound bursting can be observed) in WT mice after bath application of LY379268 (1 μM; FIG. 1C). The threshold for rebound bursting in the baseline condition (control) was −76.98 mV±1.79 (mean±s.e.m.), while after the bath application of LY379268 (1 μM) it was −78.48 mV±1.80 (n=10 Wilcoxon signed rank test: p=0.048*). Such changes in threshold were also not observed following ACSF treatment (n=10; baseline: −76.06 mV±1.71; ACSF treated: −76.32 mV±1.82; Wilcoxon signed rank test: p=0.3750).
Since early clinical trials used a prodrug form of another selective group II metabotropic glutamate receptor agonist, specifically […] (a methionine amide of LY-404039, also called pornagiumetad methionil or LY-2140023 monohydrate), the effect of LY-404039 on TRN neuron rebound bursting activity in WT mice was measured. […] The rebound bursting in control conditions was 2.71±0.42 (mean±s.e.m.), while after the bath application of LY404039 (1 μM) it was 4.57±0.64 (n=7 Wilcoxon signed rank test: p=0.0156).
Whether specific allosteric activation of the mGlu3 receptor can also enhance rebound bursting activity in TRN neurons was examined. […]

[2] = system: WT mice; test: EEG recording of NREM sleep and sleep spindle density after Mavalon-63, decision tree algorithm; type: in vivo; conditions: 10 mg/kg
Procedure: (§2) There is a strong correlation between rebound bursting in TRN neurons and the rate of occurrence of sleep spindle oscillations during NREM or deep sleep state in mice (Wells et al., Ghoshal et al.) Since LY379268 increased rebound burst firing of TRN neurons in WT mice and rescued rebound bursting deficits in RH mice, it was examined whether activation of mGlu3 could rescue the sleep spindle deficits observed in the RH mice. LY379268 was administered intraperitoneally (i.p.; 10 mg/kg) while simultaneously recording the brain activity using electroencephalography (EEG) in WT and CaV3.3 RH mice. EEG was recorded using surface electrodes chronically implanted near the frontal and parietal lobes of the mice (Pinnacle Systems). Mice were habituated in the EEG recording arena for 48 hrs and then injected with vehicle (0.9% saline) and recorded for another 24 hours. Then, 10 mg/kg LY379268 formulated in 0.9% saline was injected, and their EEG activity was recorded for another 24 hours, and analyzed by Luna (zzz.bwh.harvard.edu, Ghoshal et al., 2020).
Whether allosteric activation of mGlu3 receptor using the Mavalon-63 PAM would also lead to an increase in sleep spindle density was examined. The experimental design is shown in FIG. 6A, and mice were similarly recorded as in Example 4. […]

[3] = system: TRN neurons in RH mice; test: Rebound burst firing in TRN neurons, slices from CACNA1I R1305H (RH) mice; type: cell-based; conditions: LY379268 1 μM bath application, mean±s.e.m., n=9, baseline 1.44±0.444, p=0.0039
From the text: as §1
Mice carrying a mutation in CACNA1I (R1305H; RH mice) show a significant deficit in rebound bursting of TRN neurons. The amino acid sequence of mouse CACNA1I protein is provided in SEQ ID NO: 2. Whether the group II metabotropic glutamate receptor agonist LY379268 could rescue such deficits in rebound bursting in RH mice was tested. Similar to in WT mice, LY379268 (1 μM) was also able to increase rebound bursting in RH mice (FIG. 2A-2B). The rebound bursting in baseline/control conditions was 1.44±0.444 (mean±s.e.m.), while after the bath application of LY379268 (1 μM) it was 3.78±1.08 (n=9 Wilcoxon signed rank test: p=0.0039**). […]

[4] = system: WT and CaV3.3 RH mice; test: EEG recording of NREM sleep, delta power and sleep spindles after LY379268, analyzed by Luna; type: in vivo; conditions: 10 mg/kg i.p.
Procedure: as §2

[5] = both WT and RH mice, 12 hr light cycle

## N[C@@]1(C(=O)O)CS(=O)(=O)[C@H]2[C@H](C(=O)O)[C@H]21 [LY404039, (1R,4S,5S,6S)-4-Amino-2-thiabicyclo [3.1.0]hexane-4,6-dicaiboxylic acid 2,2-dioxide]
[1]; WT mice, LY404039 1 μM bath application, n=7, control 2.71±0.42, p=0.0156
  rebound bursting (number of rebound bursts) after bath application: 4.57±0.64

## CN1C(=O)c2cccn2-c2cc(-c3ccc(F)cn3)ccc2C12CC2 [Mavalon 63, 5-Methyl-9-(5-fluoropyridin-2-yl)-spiro[benzo [f]pyrrolo[1.2-a][1,4]diazepine-6,1′-cyclopropan]-4(5H)-one]
[1]; WT TRN neurons, Mavalon 63 500 nM bath application, n=12, baseline 3.2±0.77, p=0.0020
  rebound bursting (number of rebound bursts) after bath application: 4.9±0.91
[2]; 12-hr light cycle
  time spent in NREM: did not increase
[2]; averaged across all center frequencies 9-15 Hz, 12 hour light cycle
  parietal sleep spindle density during NREM: appreciable and significant (p<0.05; paired t-test) increase

## N[C@@]1(C(=O)O)CO[C@H]2[C@H](C(=O)O)[C@H]21 (stereo in doubt) [LY379268, (1R,4R,5S, 6R)-4-Amino-2-oxabicyclo[3.1.0]hexane-4,6-dicarboxylic acid]
[1]; WT mice, LY379268 1 μM bath application, n=10, baseline −76.98 mV±1.79, p=0.048
  threshold for rebound bursting after bath application: −78.48 mV
[1]; WT mice, LY379268 1 μM bath application, n=15, baseline 1.87±0.291, p=0.002
  rebound bursting (number of rebound bursts) after bath application: 2.87±0.435
[3]
  rebound bursting (number of rebound bursts) after bath application: 3.78±1.08
[4]; RH mice, to wildtype levels, WT-baseline vs RH-LY379268 p>0.05
  NREM specific sleep spindle deficits in RH mice: rescued
[4]; both WT and RH mice, 12-hr light cycle, especially parietal cortex, Fc=13 Hz and 15 Hz
  sleep spindle density, entire NREM period: modest but significant increase
[4]; [5]
  relative delta power: concurrent increase
  time spent in NREM sleep: increased
[4]; compared with the entire 12-hr light cycle, Fc=13 Hz and 15 Hz
  increase in sleep spindles, latter half (last 6 hours) of the light cycle: more robust
